Assay results published in patent US10328061B2, “Treatment of Zika virus infections using alpha-glucosidase inhibitors” (FLORIDA STATE UNIVERSITY RESEARCH FOUNDATION, INC., priority 2016, dated 2019).

Experiments:
[1] = test system: Japanese encephalitis virus; conditions: compared with Dengue virus; cited from earlier work
[2] = test system: Japanese encephalitis virus; conditions: mice given a lethal dose of Japanese encephalitis virus; cited from earlier work
Zika virus (FSS13025) [3] = test: Zika viral load in liver of Ifnar1-/- mice (ZIKV NS1 gene real time PCR); assay type: in vivo, Ifnar1-/- mice (C57BL/6 background); conditions: 100 mg/kg BW intraperitoneal, day 0 to day 3, ZIKV NS1 gene by real time PCR
Protocol: FIGS. 3A-3B. Zika viral load in liver of Ifnar1−/− mice. After euthanizing the mice, liver tissue samples were stored in RNAase later buffer, and after homogenization in lysis buffer the total RNA was extracted using Rneasy column (Qiagen). cDNA was prepared using RT reaction. The expression level of the ZIKV NS1 gene was quantified by real time PCR using specific primers. Statistical analysis was done by unpaired t-test using GraphPad Prism software. *p<0.05 is considered as significant (FIG. 3B). There was a 68% decrease in the viral load in the liver with castanospermine treatment (FIG. 3A).
(§1) Ifnar1−/− mice (C57BL/6 background) were obtained (Muller U. et al. “Functional role of type I and type II interferons in antiviral defense”. Science. 1994; 264(5167):1918-21. Epub 1994/06/24). Out of 18 total Ifnar1−/− mice, two mice were dosed with castanospermine and media, 8 mice (male+female) were dosed with saline and ZIKV, and 8 mice were dosed with castanospermine and ZIKV on day-0. The drug was continued for three more days and animals were sacrificed on day-3. Body weight and water consumption were monitored daily.

FSS-13025 strain of ZIKV = test: Anti-ZIKV activity in SNB-19 cells, ZIKV-NS1 Western blot; assay type: cell-based, Zika virus; conditions: 100 μm, 500 μm and 1 mM, one hour prior to inoculation (MOI=1), harvested 24 hours post-infection
Protocol: FIG. 1. Castanospermine as anti-ZIKV compound. Castanospermine was screened for antiviral activity against ZIKV infection. Glioblastoma SNB-19 cells were treated with castanospermine at the indicated concentrations one hour prior to inoculation with the FSS-13025 strain of ZIKV (at MOI=1). Cells were harvested 24 hours post-infection and analyzed by Western blot for ZIKV-NS1 or GAPDH.
Cells of the glioblastoma SNB-19 cell line were maintained at 37° C. in 5% CO2 in […], 1× penicillin/streptomycin, and 10% fetal bovine serum (Invitrogen). SNB-19 cells were treated with castanospermine at increasing concentrations (100 μm, 500 μm, and 1 mM) one hour prior to inoculation with the FSS-13025 strain of ZIKV. Cells were harvested 24 hours post-infection and analyzed by Western blot for ZIKV-NS1 or GAPDH.

West Nile Virus = conditions: cited from earlier work
Zika virus (FSS13025) [4] = test: Zika viral load in serum of Ifnar1-/- mice (ZIKV NS1 ELISA); assay type: in vivo, Ifnar1-/- mice (C57BL/6 background); conditions: 100 mg/kg BW intraperitoneal, day 0 to day 3
From the text: FIGS. 2A-2B. Zika viral load in serum in Ifnar1−/− mice. Serum was separated from the blood by centrifugation. Viral load (NS1) was estimated using the ZIKV NS1 ELISA Kit (BioFront Technologies, Fl, USA) as per the manual. Statistical analysis was done by unpaired t-test using GraphPad Prism software. *p<0.05 is considered as significant (FIG. 2B). With castanospermine treatment, there was 46% reduction in Zika virus load as estimated by NS1 protein in the serum (FIG. 2A).
as §1

[5] = by endogenous esterases; cited from earlier work

CCCCCCCCCN1C[C@H](O)[C@@H](O)[C@H](O)[C@H]1CO [NN-DNJ, N-nonyl-deoxynojirimycin]
suppression of cell infection by Japanese encephalitis virus [1]: suppressed cell infection but to a lesser extent than with Dengue virus
mortality rate [2]: decreased mortality rate

O[C@H]1[C@H](O)[C@@H](O)CN2CC[C@H](O)[C@H]12 [castanospermine, (1S,6S,7R,8aR)-Tetrahydroxyoctahydroindolizine]
decrease in the viral load in the liver (Zika virus (FSS13025) [3]): 68%
inhibition of ZIKV infection (ZIKV protein NS1 expression) (FSS-13025 strain of ZIKV): significantly inhibit ZIKV infection
sensitivity of West Nile Virus (West Nile Virus): insensitive
reduction in Zika virus load as estimated by NS1 protein in the serum (Zika virus (FSS13025) [4]): 46%

CCCC(=O)O[C@H]1CN2CC[C@H](O)[C@@H]2[C@@H](O)[C@@H]1O [celgosivir, 6-O-butanoyl castanospermine]
conversion to castanospermine [5]: rapidly converted
